Converted amounts (≈) assume the structure as drawn.
How the values were obtained:
[1] = Stability / isomerization in solvents; type: physicochemical; details: for stability in solvents: CH2Cl2, CHCl3, MeOH, and EtOH at room temperature; for stability on prolonged storage: in alcohol over several weeks
Text: The resulting mixture was purified on HPLC yielding 4 and its diastereomer 5. […] The ^1H and ^13C NMR data of 4 and 5 were almost identical (Tables S2 and S3 of the appendix of U.S. Provisional Patent Application 62/295,343). […] Thus, the absolute configuration of C-3′-C-5′ was deduced as 3'S,4'S,5'S, opposite to that of 4.

[2] = system: four Tolypocladium spp. (T1-T4), four Penicillium spp. (P1-P4) and Aspergillus niger (A1); assay: Antifungal test (MIC) against a panel of test fungi; type: cell-based; details: against all of the fungal strains of the panel, 72 h, 25° C., MIC = >80% growth reduction, read-out: MIC (growth inhibition)
Description: This prompted us to ask the question what effect the addition of the shikimate analogue moiety had on the bioactivities of compounds 8, 9, 12, and the other nucleophilic substances that we tested. A panel of fungi including four Tolypocladium spp. (T1-T4), four Penicillium spp. (P1-P4) and Aspergillus niger (A1) were selected for assessment. […] To test the capacity of 11 to block the toxicity of 13 in real time, fungal cultures were preincubated with 11 and then treated with varying doses of 13. This regimen of preadministering 11 afforded up to an 8-fold decrease in the MIC of 13 (FIG. 15A). […] We had also noted that the addition of NaNO3 to the culture medium thoroughly abolished the formation of 10 and 11. […] Whereas previously reported resistance mechanisms involving antibiotic modification depended on the enzymatic modification of target substrates, fungal metabolites 10 and 11 functioned as electrophilic warheads that were reactive to a wide variety of natural and synthetic organic substances. […]
(§1) The effects of compounds on fungal growth of fungi were tested using the method described in the NCCLS M38-A guidelines with following modifications. […] After 72 h of incubation at 25° C., the optical densities of fungi were measured using a microplate reader (Infinite M200, Tecan Group Ltd.). […]

Tolypocladium sp. T1 = assay: Antifungal test against T1 in PDB / PDB-N media (fresh or 5-day-old T1 broth); type: cell-based; details: for effect of supplemental NaNO3 in test medium on antifungal efficacy: against T1, PDB-N = PDB plus 2 g/L NaNO3; for sensitivity of T1 to antifungal activity, normal versus NaNO3-supplemented medium: freshly prepared media, 3-day test window; for resistance of T1 culture: test medium prepared from 5-day-old T1 culture broth, non-NaNO3-supplemented
Text: (§2) Media types: PDB (potato dextrose broth); PDB-N(PDB plus 2 g/L NaNO3); PDB 8:2 (mixture of centrifuged broth of T1 grown in PDB for 5 days with fresh PDB at the ratio of 8:2); PDB-N 8:2 (mixture of centrifuged broth of T1 grown in PDB-N for 5 days with fresh PDB at the ratio of 8:2).
This prompted us to ask the question what effect the addition of the shikimate analogue moiety had on the bioactivities of compounds 8, 9, 12, and the other nucleophilic substances that we tested. A panel of fungi including four Tolypocladium spp. (T1-T4), four Penicillium spp. (P1-P4) and Aspergillus niger (A1) were selected for assessment. […] To test the capacity of 11 to block the toxicity of 13 in real time, fungal cultures were preincubated with 11 and then treated with varying doses of 13. This regimen of preadministering 11 afforded up to an 8-fold decrease in the MIC of 13 (FIG. 15A). […] We had also noted that the addition of NaNO3 to the culture medium thoroughly abolished the formation of 10 and 11. […] Whereas previously reported resistance mechanisms involving antibiotic modification depended on the enzymatic modification of target substrates, fungal metabolites 10 and 11 functioned as electrophilic warheads that were reactive to a wide variety of natural and synthetic organic substances. The actions of these metabolites serve to limit the deleterious effects of antibiotics/toxins against their microbial targets.
The effects of compounds on fungal growth of fungi were tested using the method described in the NCCLS M38-A guidelines with following modifications. Fungi were cultured on PDA plates (potato dextrose agar, Becton Dickinson and Company) at 25° C. for 6-10 days. The spores/mycelia were disrupted by mechanical agitation and diluted in RPMI 1640 medium (Sigma Chemical Corporation) buffered to pH 7.0 with MOPS (0.165 M, Sigma). Test compounds were prepared in DMSO or EtOH at stock concentrations of 10 mM before being serially diluted in 50 μL RPMI 1640 plus MOPS medium for testing. Aliquots of spore suspension were added to the medium containing the diluted compounds or vehicle (<1% by vol.). After 72 h of incubation at 25° C., the optical densities of fungi were measured using a microplate reader (Infinite M200, Tecan Group Ltd.). The minimum inhibitory concentration (MIC) for growth was defined as the lowest concentration causing prominent growth reduction (>80%). The RPMI 1640 medium was replaced by PDB medium or PDB-N(PDB with 2 g/L NaNO3) for the indicated antifungal tests.

[3] = system: fungi T1, T2, P1, P4, and A1; assay: Antifungal test of 13 on fungal cultures preincubated / co-treated with 11; type: cell-based, Tolypocladium spp., Penicillium spp., Aspergillus niger
Text: as §2
This prompted us to ask the question what effect the addition of the shikimate analogue moiety had on the bioactivities of compounds 8, 9, 12, and the other nucleophilic substances that we tested. A panel of fungi including four Tolypocladium spp. (T1-T4), four Penicillium spp. (P1-P4) and Aspergillus niger (A1) were selected for assessment. […] To test the capacity of 11 to block the toxicity of 13 in real time, fungal cultures were preincubated with 11 and then treated with varying doses of 13. This regimen of preadministering 11 afforded up to an 8-fold decrease in the MIC of 13 (FIG. 15A). […] We had also noted that the addition of NaNO3 to the culture medium thoroughly abolished the formation of 10 and 11. […]
as §1

IL-1 alpha = IL-1 alpha cytokine response in media of EpiDerm tissues (ELISA); type: cell-based, human; details: media of EpiDerm tissues after exposure
Description: IL-1 alpha secretion was not elevated in response to the test compounds, indicating a low potential for allergic reactions. […] Cytokine levels were determined by ELISA.

[4] = system: EpiDerm™ reconstructed human epidermis tissues; assay: Time course toxicity in EpiDerm tissues (MTT assay); type: cell-based; details: after 24 hours
Description: All substances are safe for greater than 24 hours, at even a very high dose of 500 μM. […] Viability of EpiDerm™ tissues was determined by MTT assay.

[5] = Thiol neutralization on pig skin (LCMS); details: with spermine in 50% propylene glycol, 2-phenylethanethiol, 10 min
Description: After the Pericosine composition was applied to the thiol on the pig skin and allowed to react for 10 minutes, an eluate from the treated area was analyzed with LCMS. Only a pericosine-thiol conjugate was detected.
Pericosine A, spermine, and the model thiol compound 2-phenylethanethiol were prepared into 100 mM stock solutions in dimethyl sulfoxide (DMSO). 5 uL pericosine A and 5 uL spermine solutions were pre-mixed into 50 uL 50% propylene glycol to form a test composition. A piece of pig skin (1 inch×1 inch) was placed in a 10-cm ID petri dish. 5 uL of the thiol solution was dispensed onto the pig skin sample. The pericosine test composition was applied to the thiol-treated spot on the pig skin sample. The petri dish was covered and gently agitated to cause the thiol sample to mix with the pericosine test composition. After 10 min incubation, the solution on the pig skin was transferred using a pipet into an Eppendorf tube. The treated spot on the pig skin was extracted with 100 uL MeOH and the MeOH solution was combined with the solution in the Eppendorf tube. After mixing and centrifuging, the mixed solution was subjected to LCMS analysis.
As shown in FIG. 21(a), a major pericosine-thiol conjugated product was detected by the LCMS analysis in the solution removed from the pig skin.

| Compound | stability in solvents [1] | stability on prolonged storage [1] | effect of supplemental NaNO3 in test medium on antifungal efficacy (Tolypocladium sp. T1) | sensitivity of T1 to antifungal activity, normal versus NaNO3-supplemented medium (Tolypocladium sp. T1) | resistance of T1 culture (Tolypocladium sp. T1) | other results |
| --- | --- | --- | --- | --- | --- | --- |
| pseudomaximiscin B [Compound 5] | stable for several days | modest levels of compound rearrangement | – | – | – | – |
| pseudomaximiscin A [Compound 4] | stable for several days | modest levels of compound rearrangement | – | – | – | stability in DMSO-d6 ([1]; dissolved in DMSO-d6): Rapid isomerization |
| Cc1cc(C2CCCCC2)n(O)c(=O)c1 [Compound 13, ciclopirox] | – | – | enhanced | equally sensitive | increasingly resistant | MIC [2]: 1 to 50 µM (≈ 0.207 to 10.4 µg/mL); antifungal efficacy of 13 on co-treatment with 11 ([3]; co-treatment by 11 plus 13, fungi T1, T2, P1, P4, A1): reduced; decrease in the MIC of 13 ([3]; fungal cultures preincubated with 11, then treated with varying doses of 13): ≤ 8 fold |
| PF1140 [Compound 8] | – | – | enhanced | equally sensitive | increasingly resistant | – |
| Triton X-100 | – | – | – | – | – | IL-1 alpha secretion (IL-1 alpha): significant response; EpiDerm tissue outcome ([4]; 1% control in the test with activating compound and fragrance): epidermal death; EpiDerm tissue outcome ([4]; 1% control, MTT assay): epidermal death |
| COC(=O)C1=C[C@H](O)[C@H](O)[C@H](O)[C@H]1Cl [Compound 11, (+)-pericosine A] | – | – | – | – | – | neutralization of thiol on a surface (pig skin) ([5]; listed as Pericosine A): completely neutralize; neutralization of thiol on a surface (pig skin) ([5]; listed as pericosine A): quantitative consumption |

From patent US20220144747A1, “SHIKIMATE ANALOGUES AND METHODS OF USE” (The Board of Regents of the University of Oklahoma, priority 2016, published 2022)
